Reference: patent US20260285857A1, “BICYCLIC AND HETEROCYCLIC AMIDE COMPOUNDS” (priority 2024, published 2026)

test system: immunoglobulin light chain protein WIL-FL T46L; assay: Differential scanning fluorimetry (thermal shift) assay; format: binding; details: Table B; temperature shift [Tm]compound-[Tm]vehicle; recombinant WIL-FL T46L

**Q.** With `Cc1cc(N2CC[C@](C)(c3ccccc3)C2)cn2nc(C(=O)NC3CC4CCC3N4c3cccc(C(=O)O)n3)nc12` (stereo partly shown) [Compound 668] as the compound, how does the DSF read?
**A.** ***** (>2.5° C.=*****)

**Q.** `Cc1cc(N2CC[C@](C)(c3ccccc3)C2)cn2nc(C(=O)NC3COCC4(C3)CN(c3cccc(C(=O)O)n3)C4)nc12` (stereo partly drawn) [Compound 669, 6-(8-(8-methyl-6-((R)-3-methyl-3-phenylpyrrolidin-1-yl)-[1,2,4]triazolo[1,5-a]pyridine-2-carboxamido)-6-oxa-2-azaspiro[3.5]nonan-2-yl)picolinic acid] was tested. Which DSF did it give?
**A.** ***** (>2.5° C.=*****)

**Q.** With `Cc1cc(N2CC[C@](C)(c3ccccc3)C2)cn2nc(C(=O)N3CCC4(CCC(O)(c5cccc(C(=O)O)n5)C4)C3)nc12` (stereo partly drawn) [Compound 670, 6-[8-hydroxy-2-[8-methyl-6-[(3R)-3-methyl-3-phenyl-pyrrolidin-1-yl]-[1,2,4]triazolo[1,5-a]pyridine-2-carbonyl]-2-azaspiro[4.4]nonan-8-yl]pyridine-2-carboxylic acid] as the compound, how does the DSF read?
**A.** ***** (>2.5° C.=*****)

**Q.** How did the DSF turn out when `Cc1cc(N2CC[C@](C)(c3ccccc3)C2)cn2nc(C(=O)N3CCC4(CC(=O)N(c5cccc(C(=O)O)n5)C4)C3)nc12` (stereo partly drawn) [Compound 671, 6-[7-[8-methyl-6-[(3R)-3-methyl-3-phenyl-pyrrolidin-1-yl]-[1,2,4]triazolo[1,5-a]pyridine-2-carbonyl]-3-oxo-2,7-diazaspiro[4.4]nonan-2-yl]pyridine-2-carboxylic acid] was run?
**A.** ***** (>2.5° C.=*****)

**Q.** For `Cc1cc(N2CC[C@](C)(c3ccccc3)C2)cn2nc(C(=O)N3CC[C@@]4(CCN(C(=O)C5COC(C(=O)O)C5)C4)C3)nc12` (stereo partly shown) [Compound 672], which DSF is on record?
**A.** ***** (>2.5° C.=*****)

**Q.** For `Cc1cc(N2CC[C@](C)(c3ccccc3)C2)cn2nc(C(=O)NC3CC4(CCN(C(=O)CC(C)(O)C(=O)O)C4)C3)nc12` (stereo partly drawn) [Compound 673, 2-hydroxy-2-methyl-4-(2-(8-methyl-6-((R)-3-methyl-3-phenylpyrrolidin-1-yl)-[1,2,4]triazolo[1,5-a]pyridine-2-carboxamido)-6-azaspiro[3.4]octan-6-yl)-4-oxobutanoic acid], which DSF is on record?
**A.** ***** (>2.5° C.=*****)

**Q.** Which DSF does the source give for `Cc1cc(N2CC[C@](C)(c3ccccc3)C2)cn2nc(C(=O)N3CCC4(CCC(C5CCC(C(=O)O)CC5)C4)C3)nc12` (stereo partly drawn) [Compound 674, 4-(2-(8-methyl-6-((R)-3-methyl-3-phenylpyrrolidin-1-yl)-[1,2,4]triazolo[1,5-a]pyridine-2-carbonyl)-2-azaspiro[4.4]nonan-7-yl)cyclohexane-1-carboxylic acid] here?
**A.** ***** (>2.5° C.=*****)

**Q.** Which DSF does the source give for `Cc1cc(N2CC[C@](C)(c3ccccc3)C2)cn2nc(C(=O)N3CCC4(CCCN4c4cccc(C(=O)O)n4)C3)nc12` (stereo partly drawn) [Compound 675, 6-(7-(8-methyl-6-((R)-3-methyl-3-phenylpyrrolidin-1-yl)-[1,2,4]triazolo[1,5-a]pyridine-2-carbonyl)-1,7-diazaspiro[4.4]nonan-1-yl)picolinic acid] here?
**A.** ***** (>2.5° C.=*****)

**Q.** Which DSF does the source give for `Cc1cc(N2CC[C@](C)(c3ccccc3)C2)cn2nc(C(=O)NC3CCC34CC(O)C4)nc12` (stereo partly drawn) [Compound 676, N-(2-hydroxyspiro[3.3]heptan-7-yl)-8-methyl-6-[(3R)-3-methyl-3-phenyl-pyrrolidin-1-yl]-[1,2,4]triazolo[1,5-a]pyridine-2-carboxamide] here?
**A.** ***** (>2.5° C.=*****)

**Q.** With `Cc1cc(N2CC[C@](C)(c3ccccc3)C2)cn2nc(C(=O)NC3CCC34CC(OCC(=O)O)C4)nc12` (stereo partly drawn) [Compound 677, 2-[7-[[8-methyl-6-[(3R)-3-methyl-3-phenyl-pyrrolidin-1-yl]-[1,2,4]triazolo[1,5-a]pyridine-2-carbonyl]amino]spiro[3.3]heptan-2-yl]oxyacetic acid] as the compound, how does the DSF read?
**A.** ***** (>2.5° C.=*****)

**Q.** With `Cc1cc(N2CC[C@](C)(c3ccccc3)C2)cn2nc(C(=O)NC3CC4(C3)CN(C(=O)C35CCC(C(=O)O)(CC3)OC5)C4)nc12` [Compound 678, 4-[6-[[8-methyl-6-[(3R)-3-methyl-3-phenyl-pyrrolidin-1-yl]-[1,2,4]triazolo[1,5-a]pyridine-2-carbonyl]amino]-2-azaspiro[3.3]heptane-2-carbonyl]-2-oxabicyclo[2.2.2]octane-1-carboxylic acid] as the compound, how does the DSF read?
**A.** ***** (>2.5° C.=*****)

**Q.** `COC(C)(CC(=O)N1CC2(CC(NC(=O)c3nc4c(C)cc(N5CC[C@](C)(c6ccccc6)C5)cn4n3)C2)C1)C(=O)O` (stereo partly shown) [Compound 679] was tested. Which DSF did it give?
**A.** ***** (>2.5° C.=*****)

**Q.** How did the DSF turn out when `Cc1cc(N2CC[C@](C)(c3ccccc3)C2)cn2nc(C(=O)NC3CC4(C3)CN(C(=O)C3CC(C)(C(=O)O)C3)C4)nc12` (stereo partly shown) [Compound 680] was run?
**A.** ***** (>2.5° C.=*****)

**Q.** How did the DSF turn out when `Cc1cc(N2CC[C@](C)(c3ccccc3)C2)cn2nc(C(=O)NC3CC4(C3)CN(C(=O)C35CC(C(=O)O)(C3)C5)C4)nc12` [Compound 681] was run?
**A.** ***** (>2.5° C.=*****)

**Q.** For `Cc1cc(N2CC[C@](C)(c3ccccc3)C2)cn2nc(C(=O)NC3(CO)CCCN(c4cccc(C(=O)O)n4)C3)nc12` (stereo partly drawn) [Compound 682, 6-[3-(hydroxymethyl)-3-[[8-methyl-6-[(3R)-3-methyl-3-phenyl-pyrrolidin-1-yl]-[1,2,4]triazolo[1,5-a]pyridine-2-carbonyl]amino]-1-piperidyl]pyridine-2-carboxylic acid], which DSF is on record?
**A.** ***** (>2.5° C.=*****)

**Q.** With `Cc1cc(N2CC[C@](C)(c3ccccc3)C2)cn2nc(C(=O)N[C@@H]3CN(c4cccc(C(=O)O)n4)CC3(C)C)nc12` [Compound 683] as the compound, how does the DSF read?
**A.** ***** (>2.5° C.=*****)

**Q.** Which DSF does the source give for `Cc1cc(N2CC[C@](C)(c3ccccc3)C2)cn2nc(C(=O)NC3CN(c4cccc(C(=O)O)n4)CC3O)nc12` (stereo partly shown) [Compound 684] here?
**A.** ***** (>2.5° C.=*****)

**Q.** For `Cc1cc(N2CC[C@](C)(c3ccccc3)C2)cn2nc(C(=O)NC3C4CCN(c5cccc(C(=O)O)n5)CC43)nc12` (stereo partly drawn) [Compound 685, 6-(7-(8-methyl-6-((R)-3-methyl-3-phenylpyrrolidin-1-yl)-[1,2,4]triazolo[1,5-a]pyridine-2-carboxamido)-3-azabicyclo[4.1.0]heptan-3-yl)picolinic acid], which DSF is on record?
**A.** ***** (>2.5° C.=*****)

**Q.** Which DSF does the source give for `Cc1cc(N2CC[C@](C)(c3ccccc3)C2)cn2nc(C(=O)N3CCC(O)(CNc4cccc(C(=O)O)n4)C3)nc12` (stereo partly shown) [Compound 686] here?
**A.** ***** (>2.5° C.=*****)

**Q.** How did the DSF turn out when `Cc1cc(N2CC[C@](C)(c3ccccc3)C2)cn2nc(C(=O)N3CCC4(C3)CN(c3cccc(C(=O)O)n3)C(=O)O4)nc12` (stereo partly shown) [Compound 687] was run?
**A.** ***** (>2.5° C.=*****)

**Q.** `Cc1cc(N2CC[C@](C)(c3ccccc3)C2)cn2nc(C(=O)N3CCC4C3CC(=O)N4c3cccc(C(=O)O)n3)nc12` (stereo partly shown) [Compound 688] was tested. Which DSF did it give?
**A.** ***** (>2.5° C.=*****)

**Q.** `Cc1cc(N2CC[C@](C)(c3ccccc3)C2)cn2nc(C(=O)NC[C@@H]3CCCN3c3cccc(C(=O)O)n3)nc12` [Compound 689] was tested. Which DSF did it give?
**A.** ***** (>2.5° C.=*****)

**Q.** With `Cc1cc(N2CC[C@](C)(c3ccccc3)C2)cn2nc(C(=O)NC3CC4(C3)CN(c3ccnc(C(=O)O)c3)C4)nc12` [Compound 691, (R)-4-(6-(8-methyl-6-(3-methyl-3-phenylpyrrolidin-1-yl)-[1,2,4]triazolo[1,5-a]pyridine-2-carboxamido)-2-azaspiro[3.3]heptan-2-yl)picolinic acid] as the compound, how does the DSF read?
**A.** ***** (>2.5° C.=*****)

**Q.** Which DSF does the source give for `Cc1ccc(C(=O)O)nc1N1CCC2(CCN(C(=O)c3nc4c(C)cc(N5CC[C@](C)(c6ccccc6)C5)cn4n3)C2)C1` (stereo partly shown) [Compound 692] here?
**A.** ***** (>2.5° C.=*****)

**Q.** How did the DSF turn out when `Cc1cc(N2CC[C@](C)(c3ccccc3)C2)cn2nc(C(=O)N[C@@H]3CCCN(c4cccc(C(=O)O)n4)C3)nc12` [Compound 693] was run?
**A.** ***** (>2.5° C.=*****)

**Q.** `Cc1cc(N2CC[C@](C)(c3ccccc3)C2)cn2nc(C(=O)N3CCCN(c4ccc(C(=O)O)cn4)CC3)nc12` [Compound 694] was tested. Which DSF did it give?
**A.** ***** (>2.5° C.=*****)

**Q.** `Cc1cc(N2CC[C@](C)(c3ccccc3)C2)cn2nc(C(=O)N3CC4CCC3C(=O)N4c3cccc(C(=O)O)n3)nc12` (stereo partly drawn) [Compound 695, 6-[5-[8-methyl-6-[(3R)-3-methyl-3-phenyl-pyrrolidin-1-yl]-[1,2,4]triazolo[1,5-a]pyridine-2-carbonyl]-3-oxo-2,5-diazabicyclo[2.2.2]octan-2-yl]pyridine-2-carboxylic acid] was tested. Which DSF did it give?
**A.** ***** (>2.5° C.=*****)

**Q.** Which DSF does the source give for `Cc1cc(N2CC[C@](C)(c3ccccc3)C2)cn2nc(C(=O)N3CC(CNc4cccc(C(=O)O)n4)C(C)(O)C3)nc12` (stereo partly drawn) [Compound 696, 6-(((4-hydroxy-4-methyl-1-(8-methyl-6-((R)-3-methyl-3-phenylpyrrolidin-1-yl)-[1,2,4]triazolo[1,5-a]pyridine-2-carbonyl)pyrrolidin-3-yl)methyl)amino)picolinic acid] here?
**A.** ***** (>2.5° C.=*****)

**Q.** Which DSF does the source give for `Cc1cc(N2CC[C@](C)(c3ccccc3)C2)cn2nc(C(=O)NC3C4CC3N(c3cccc(C(=O)O)n3)C4)nc12` (stereo partly drawn) [Compound 697, 6-[5-[[8-methyl-6-[(3R)-3-methyl-3-phenyl-pyrrolidin-1-yl]-[1,2,4]triazolo[1,5-a]pyridine-2-carbonyl]amino]-2-azabicyclo[2.1.1]hexan-2-yl]pyridine-2-carboxylic acid] here?
**A.** ***** (>2.5° C.=*****)

**Q.** With `Cc1cc(N2CC[C@](C)(c3ccccc3)C2)cn2nc(C(=O)N[C@@H]3CN(c4cccc(C(=O)O)n4)CC34CC4)nc12` [Compound 698] as the compound, how does the DSF read?
**A.** ***** (>2.5° C.=*****)

**Q.** With `Cc1cc(N2CC[C@](C)(c3ccccc3)C2)cn2nc(C(=O)NC3CN(c4cccc(C(=O)O)n4)CC4(COC4)C3)nc12` (stereo partly drawn) [Compound 699, 6-[6-[[8-methyl-6-[(3R)-3-methyl-3-phenyl-pyrrolidin-1-yl]-[1,2,4]triazolo[1,5-a]pyridine-2-carbonyl]amino]-2-oxa-8-azaspiro[3.5]nonan-8-yl]pyridine-2-carboxylic acid] as the compound, how does the DSF read?
**A.** ***** (>2.5° C.=*****)

**Q.** How did the DSF turn out when `Cc1cc(N2CC[C@](C)(c3cccc(F)c3)C2)cn2nc(C(=O)NC3CCN(c4cccc(C(=O)O)n4)CC34COC4)nc12` (stereo partly shown) [Compound 700] was run?
**A.** ***** (>2.5° C.=*****)

**Q.** For `Cc1cc(N2CC[C@@](C)(n3ccc(C(F)(F)F)n3)C2)cn2nc(C(=O)N[C@@H]3CCN(c4cccc(C(=O)O)n4)CC34COC4)nc12` [Compound 701], which DSF is on record?
**A.** ***** (>2.5° C.=*****)

**Q.** `Cc1cc(N2CC[C@](C)(c3ccccc3)C2)cn2nc(C(=O)N3CCC(Nc4cccc(C(=O)O)n4)C4(COC4)C3)nc12` (stereo partly shown) [Compound 702] was tested. Which DSF did it give?
**A.** ***** (>2.5° C.=*****)
